The target in data set [1] is T1, hTLR8 (Homo sapiens, UniProt Q9NR97).
T1 construct: expressed in transfected cells; host or cells: HEK-Blue hTLR8 cells
T1 sequence (Q9NR97 27-1041): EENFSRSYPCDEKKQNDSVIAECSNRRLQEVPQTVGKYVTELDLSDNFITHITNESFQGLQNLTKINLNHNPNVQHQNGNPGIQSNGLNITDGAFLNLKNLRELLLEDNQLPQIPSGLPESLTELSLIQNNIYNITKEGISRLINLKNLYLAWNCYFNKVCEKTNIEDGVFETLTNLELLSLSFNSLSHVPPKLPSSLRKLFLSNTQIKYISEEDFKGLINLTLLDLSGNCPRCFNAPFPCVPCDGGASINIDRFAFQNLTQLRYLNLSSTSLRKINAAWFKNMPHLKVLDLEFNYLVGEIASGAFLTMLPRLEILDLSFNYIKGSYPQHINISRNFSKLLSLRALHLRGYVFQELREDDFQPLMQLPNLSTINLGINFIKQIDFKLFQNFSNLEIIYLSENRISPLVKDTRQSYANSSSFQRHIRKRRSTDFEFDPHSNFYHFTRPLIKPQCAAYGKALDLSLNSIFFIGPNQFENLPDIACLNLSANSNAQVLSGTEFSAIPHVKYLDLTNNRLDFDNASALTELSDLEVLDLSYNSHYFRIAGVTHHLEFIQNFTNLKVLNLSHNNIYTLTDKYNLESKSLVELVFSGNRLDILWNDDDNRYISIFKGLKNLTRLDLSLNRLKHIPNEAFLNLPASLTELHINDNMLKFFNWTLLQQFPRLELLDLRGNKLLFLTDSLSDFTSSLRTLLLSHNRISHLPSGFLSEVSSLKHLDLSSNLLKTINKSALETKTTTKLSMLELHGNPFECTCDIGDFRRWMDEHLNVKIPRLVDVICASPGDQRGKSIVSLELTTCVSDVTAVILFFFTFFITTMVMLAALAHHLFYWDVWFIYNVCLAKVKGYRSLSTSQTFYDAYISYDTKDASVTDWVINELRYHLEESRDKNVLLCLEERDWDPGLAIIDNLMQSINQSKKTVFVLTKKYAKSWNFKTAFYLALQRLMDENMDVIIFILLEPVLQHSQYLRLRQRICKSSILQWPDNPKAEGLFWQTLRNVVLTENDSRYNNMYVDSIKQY
Put plainly: Agonistic activity on human TLR8 in HEK-Blue hTLR8 cells (QUANTI-Blue). The class given is cell-based. The note with it: 24 h incubation, OD650, read-out: hTLR 8 EC50.
Protocol: (§1) Purpose: HEK-Blue™ hTLR7 and HEK-Blue™ hTLR8 cells were used to detect the agonist and cytotoxic activities of compounds against hTLR7 and hTLR8.
(§2) The experimental steps were as shown below: • 1) Preparation of compound: The compound was prepared into a 20 mM stock solution with DMSO, and then the stock solution was diluted 3-fold in a gradient and added to a 96-well plate, for a total of 10 concentrations, with duplicate wells for each concentration. For negative control wells, 0.5 μL DMSO was added to each well. The final DMSO concentration was 0.5%. • 2) HEK-Blue™ hTLR7 or HEK-Blue™ hTLR8 cells were suspended in culture medium and then seeded into 96-well plates containing compounds at a cell count of 50,000 per well. The compounds and cells were incubated for 24 h at 37° C., 5% Co2. • 3) QUANTI-Blue was used for the detection solution: to a mixture of 1 mL of QB reagent and 1 mL of QB buffer was added 98 mL of sterile water, the mixture was mixed and dissolved, and then placed at room temperature for 10 min. • 4) Activity test of the compound: 20 μL of the culture supernatant in step 2) was added to each well of a 96-well plate containing 180 μL of QUANTI-Blue detection solution. After incubation at 37° C. for 1 h, the absorbance at 650 nm (OD650) was detected using a multifunctional microplate reader Flextation III. • 5) Detection of cell activity: The chemiluminescent signal (RLU) was detected using the multifunctional microplate reader Flextation III according to the instructions of Celltiter-Glo. • 6) Data analysis
(§3) Activity of compounds: OD650 values were analyzed using GraphPad Prism software, and the compound dose-effect curves were fitted to calculate the EC50 values of the compounds.

Data set [2] deals with T2, hTLR7 (Homo sapiens, UniProt Q9NYK1).
T2 construct: expressed in transfected cells; host or cells: HEK-Blue hTLR7 cells
T2 sequence (Q9NYK1 27-1049): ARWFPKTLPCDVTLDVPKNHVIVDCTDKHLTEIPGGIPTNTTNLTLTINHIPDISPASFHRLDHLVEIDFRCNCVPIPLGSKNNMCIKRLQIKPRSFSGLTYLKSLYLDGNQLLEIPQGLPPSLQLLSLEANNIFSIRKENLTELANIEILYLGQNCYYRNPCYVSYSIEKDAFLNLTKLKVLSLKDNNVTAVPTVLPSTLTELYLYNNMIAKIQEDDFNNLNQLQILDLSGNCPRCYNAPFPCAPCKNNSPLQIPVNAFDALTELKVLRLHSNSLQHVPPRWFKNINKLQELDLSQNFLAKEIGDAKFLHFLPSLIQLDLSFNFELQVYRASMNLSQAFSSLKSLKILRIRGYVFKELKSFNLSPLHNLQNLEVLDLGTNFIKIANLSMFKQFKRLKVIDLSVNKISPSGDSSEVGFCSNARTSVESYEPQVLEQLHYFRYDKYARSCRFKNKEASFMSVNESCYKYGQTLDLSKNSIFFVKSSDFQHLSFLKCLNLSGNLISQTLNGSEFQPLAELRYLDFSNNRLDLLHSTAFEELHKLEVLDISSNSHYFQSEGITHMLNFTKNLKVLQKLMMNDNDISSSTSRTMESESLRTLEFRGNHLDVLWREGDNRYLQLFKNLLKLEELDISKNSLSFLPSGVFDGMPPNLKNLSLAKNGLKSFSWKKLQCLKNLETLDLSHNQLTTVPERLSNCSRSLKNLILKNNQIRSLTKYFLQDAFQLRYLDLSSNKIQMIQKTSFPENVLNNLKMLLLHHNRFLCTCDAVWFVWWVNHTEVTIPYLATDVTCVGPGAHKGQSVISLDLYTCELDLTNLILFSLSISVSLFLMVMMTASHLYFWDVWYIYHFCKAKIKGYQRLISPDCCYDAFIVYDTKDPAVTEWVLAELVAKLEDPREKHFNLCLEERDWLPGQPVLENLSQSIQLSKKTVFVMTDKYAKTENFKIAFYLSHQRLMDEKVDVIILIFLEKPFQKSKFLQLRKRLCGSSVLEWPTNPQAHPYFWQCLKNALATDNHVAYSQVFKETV
Put plainly: Agonistic activity on human TLR7 in HEK-Blue hTLR7 cells (QUANTI-Blue). The class given is cell-based. As to conditions: 24 h incubation, OD650, read-out: hTLR 7 EC50.
Protocol: as §1, §2, §3

Data set [3] can be described thus: Cell toxicity (Celltiter-Glo) in HEK-Blue hTLR8 cells. The note with it: human. On the technique in general: ATP-based viability assays read luminescence as a measure of living cells.

This is an account of results in patent US20250163051A1, “PYRIMIDO AROMATIC RING COMPOUND AND USE THEREOF IN DRUG” (SUNSHINE LAKE PHARMA CO., LTD., priority 2022, published 2025).

The structures appear in SMILES notation.

As for `C=CCCN(C)Cc1c[nH]c(=O)cc1-c1cnc2c(N[C@@H](CO)CCCC)nc(N)nc2c1` [Example 42, (R)-4-(2-Amino-4-((1-hydroxyhexan-2-yl)amino)pyrido[3,2-d]pyrimidin-7-yl)-5-((but-3-en-1-yl (methyl)amino)methyl)pyridin-2(1H)-one], the half-maximal effective concentration (EC50) in data set [1] was 0.595 µM; in data set [2], more than 100 µM. Besides, the 50% cytotoxic concentration (CC50) at 24 h in data set [3] is more than 100 µM.
As for `CCCC[C@](C)(CO)Nc1nc(N)nc2cc(-c3cc(=O)[nH]cc3COC)ccc12` [Example 68, (R)-4-(2-Amino-4-((1-hydroxy-2-methylhexan-2-yl)amino)quinazolin-7-yl)-5-(methoxymethyl) pyridin-2(1H)-one], the EC50 in data set [1] worked out at 0.042 µM; in data set [2], 14.2 µM. In data set [3], this compound registered a CC50 at 24 h of more than 100 µM.
In the same order, the values of `C=CCC(=O)N(C)Cc1c[nH]c(=O)cc1-c1cnc2c(N[C@@](C)(CO)CCCC)nc(N)nc2c1` [Example 40, (R)—N-((4-(2-Amino-4-((1-hydroxy-2-methylhexan-2-yl)amino)pyrido[3,2-d]pyrimidin-7-yl)-6-oxo-1,6-dihydropyridin-3-yl)methyl)-N-methylbut-3-enamide] are 1.52 µM, more than 100 µM and more than 100 µM.
Turning to `C=CCCOCc1c[nH]c(=O)cc1-c1cnc2c(N[C@@](C)(CO)CCCC)nc(N)nc2c1` [Example 41, (R)-4-(2-Amino-4-((1-hydroxy-2-methylhexan-2-yl)amino)pyrido[3,2-d]pyrimidin-7-yl)-5-((but-3-en-1-yloxy)methyl)pyridin-2(1H)-one], the 50% effective concentration (EC50) in data set [1] amounted to 0.354 µM; in data set [2], 29.9 µM. The same compound yielded a cytotoxic concentration (CC50) at 24 h in data set [3] of more than 100 µM.
With `CCCCN(CCCC)Cc1c[nH]c(=O)cc1-c1cnc2c(N[C@@](C)(CO)CCCC)nc(N)nc2c1` [Example 14], the 50% effective concentration (EC50) in data set [1] is 0.288 µM; in data set [2] it was more than 100 µM. Also, in data set [3], the half-maximal cytotoxic concentration (CC50) at 24 h was more than 100 µM.
As to `CCCCNCc1cn(C)c(=O)cc1-c1ccc2c(N[C@@](C)(CO)CCCC)nc(N)nc2c1` [Example 62, (R)-4-(2-Amino-4-((1-hydroxy-2-methylhexan-2-yl)amino)quinazolin-7-yl)-5-((butylamino)methyl)-1-methylpyridin-2(1H)-one], the values for the EC50 in data set [1] and in data set [2] were 0.198 µM and more than 100 µM, respectively. For the same compound, the 50% cytotoxic concentration (CC50) at 24 h in data set [3] was more than 100 µM.
In the case of `CCCC[C@](C)(CO)Nc1nc(N)nc2cc(-c3cc(=O)[nH]cc3CN3CCCCC3)ccc12` [Example 17], the concentration giving a half-maximal response (EC50) is 0.22 µM in data set [1] and more than 100 µM in data set [2]. This compound showed a CC50 at 24 h in data set [3] of more than 100 µM.
In the case of `CCCCNCc1c[nH]c(=O)cc1-c1ccc2c(N[C@@](C)(CO)CCCC)nc(N)nc2c1` [Example 58, (R)-4-(2-Amino-4-((1-hydroxy-2-methylhexan-2-yl)amino)quinazolin-7-yl)-5-((butylamino)methyl)pyridin-2(1H)-one], the half-maximal effective concentration (EC50) was 0.918 µM in data set [1] and more than 100 µM in data set [2]. Also, in data set [3], the CC50 at 24 h was more than 100 µM.
Regarding `CCCC[C@](C)(CO)Nc1nc(N)nc2cc(-c3cc(=S)[nH]cc3CN(C)CCOC)cnc12` [Example 66, (R)-4-(2-Amino-4-((1-hydroxy-2-methylhexan-2-yl)amino)pyrido[3,2-d]pyrimidin-7-yl)-5-(((2-methoxyethyl)(methyl)amino)methyl)pyridine-2(1H)-thione], the results for the half-maximal effective concentration (EC50) in data set [1] and in data set [2] were 0.183 µM and more than 100 µM, respectively. In data set [3], this compound yielded a CC50 at 24 h of more than 100 µM.
As to `CCCC[C@](C)(CO)Nc1nc(N)nc2cc(-c3cc(=O)[nH]cc3CN(C)CCNC)cnc12` [Example 20], the EC50 in data set [1] was 2.85 µM; in data set [2], more than 100 µM. In addition, the CC50 at 24 h in data set [3] is more than 100 µM.
In the case of `CC#CCN(C)Cc1c[nH]c(=O)cc1-c1cnc2c(N[C@@](C)(CO)CCCC)nc(N)nc2c1` [Example 27], the EC50 was 4.25 µM in data set [1] and more than 100 µM in data set [2]. Further, the 50% cytotoxic concentration (CC50) at 24 h in data set [3] was more than 100 µM.
`CCCC[C@](C)(CO)Nc1nc(N)nc2cc(-c3cc(=O)[nH]cc3CN(C)CCO)ccc12` [Example 60, (R)-4-(2-Amino-4-((1-hydroxy-2-methylhexan-2-yl)amino)quinazolin-7-yl)-5-(((2-hydroxyethyl)(methyl)amino)methyl)pyridin-2(1H)-one]: the EC50 in data set [1] was 0.292 µM; in data set [2], more than 100 µM. The compound also gave a CC50 at 24 h in data set [3] of more than 100 µM.
Take `C=CCCN(C)Cc1cn(C)c(=O)cc1-c1ccc2c(N[C@](C)(CCCC)CNC(=O)c3cnn(C)c3)nc(N)nc2c1` [Example 46]: the EC50 in data set [1] is 0.569 µM; in data set [2], more than 100 µM. In addition, the CC50 at 24 h in data set [3] is more than 100 µM.
`CCCC[C@](C)(CO)Nc1nc(N)nc2cc(-c3cc(=O)[nH]cc3CN3CCN(C(C)(C)C)CC3)cnc12` [Example 23]: the EC50 was 0.291 µM in data set [1] and more than 100 µM in data set [2]. Also, the cytotoxic concentration (CC50) at 24 h in data set [3] was more than 100 µM.
For `C=CCCN(C)Cc1c[nH]c(=O)cc1-c1cnc2c(N[C@](C)(CCCC)CNC(=O)c3cnn(C)c3)nc(N)nc2c1` [Example 44, (R)—N-(2-((2-Amino-7-(5-((but-3-en-1-yl(methyl)amino)methyl)-2-oxo-1,2-dihydropyridin-4-yl)pyrido[3,2-d]pyrimidin-4-yl)amino)-2-methylhexyl)-1-methyl-1H-pyrazole-4-carboxamide], the half-maximal effective concentration (EC50) in data set [1] is 0.166 µM; in data set [2] it was more than 100 µM. In data set [3], this compound displayed a 50% cytotoxic concentration (CC50) at 24 h of more than 100 µM.
With `C=CCCN(C)Cc1cn(C)c(=O)cc1-c1cnc2c(N[C@](C)(CCCC)CNC(=O)c3cnn(C)c3)nc(N)nc2c1` [Example 45], the EC50 in data set [1] is 0.097 µM; in data set [2] it was more than 100 µM. This compound came in with a CC50 at 24 h in data set [3] of more than 100 µM.
Regarding `CCCC[C@](C)(CO)Nc1nc(N)nc2cc(-c3cc(=O)[nH]cc3CN3CCOCC3)cnc12` [Example 24], the EC50 was 0.239 µM in data set [1] and more than 100 µM in data set [2]. The compound further displayed a half-maximal cytotoxic concentration (CC50) at 24 h in data set [3] of more than 100 µM.
Turning to `C=CCCN(CC)Cc1c[nH]c(=O)cc1-c1cnc2c(N[C@@](C)(CO)CCCC)nc(N)nc2c1` [Example 18], the EC50 is 0.132 µM in data set [1] and more than 100 µM in data set [2]. In data set [3], this compound showed a half-maximal cytotoxic concentration (CC50) at 24 h of more than 100 µM.
As to `CCCC[C@](C)(CO)Nc1nc(N)nc2cc(-c3cc(=O)[nH]cc3CN3CCN(C)CC3)cnc12` [Example 22], the values for the EC50 in data set [1] and in data set [2] were 0.98 µM and more than 100 µM, respectively. This compound also yielded a CC50 at 24 h in data set [3] of more than 100 µM.
Take `CCCC[C@](C)(CO)Nc1nc(N)nc2cc(-c3cc(=O)[nH]cc3CN(C)C)ccc12` [Example 67, (R)-4-(2-Amino-4-((1-hydroxy-2-methylhexan-2-yl)amino)quinazolin-7-yl)-5-((dimethylamino)methyl)pyridin-2(1H)-one]: the EC50 was 0.056 µM in data set [1] and more than 100 µM in data set [2]. In addition, the CC50 at 24 h in data set [3] was more than 100 µM.

A word on the EC50: it is the concentration at which the effect is half-maximal. The CC50 is the concentration giving 50% cytotoxicity. Low values mean harm at low concentration, high ones better tolerance by the cells.
